Converted amounts (≈) assume the structure as drawn.
How the values were obtained:
[1] = test system: human breast cancer cell strain MAD-MB-231; assay: MTT growth inhibition on MAD-MB-231; type: cell-based; conditions: MDA-MB-231, after 48 h of action
Method: By using an MTT method, a sample solution to be tested was added to a 96-well plate in which cancer cells were adherently grown. Culturing was performed for a certain period, and the growth inhibition effect of a compound on a human cancer cell strain for primary screening was measured to determine the anti-cancer activity of the compound.
Cell culture: A cell incubator was set to conditions of 37° C., 5% CO2, and a saturated humidity, cells were cultured under these conditions, and the cell medium was a DMEM complete medium, wherein 10% fetal bovine serum, 100 IU/mL penicillin, and 100 μg/mL streptomycin were comprised.
The single cell suspension was diluted to 5×10^3/100 μL after counting, inoculated on a 96-well cell culture plate (triplicate), and adherently cultured overnight; […]
The culture liquid was discarded, 100 μL of DMSO was added, low-speed oscillation was performed for 10 min by placing on a shaker, and the spectrophotometric value of each well was measured at a wavelength of 490 nm by using a microplate reader. Statistical analysis was performed and tumor cell growth inhibition rate was calculated according to the equation: Growth inhibition rate=(OD value of control group−OD value of experimental group)/OD value of control group.

HepG2 cells = assay: Apoptosis induction by laser confocal scanning microscope; type: cell-based, human; conditions: HepG2, 48 h
Protocol: Two solutions (a former one and a later one) were mixed, centrifugation was performed at 1000 r/min for 5 min, the supernatant was discarded, and washing was performed for 3 times with PBS. The cell precipitate was resuspended in Binding Buffer, 10 μL of a FITC-Annen V staining liquid was added, homogenized by pipetting slightly, and reaction was performed under protection from light. PI was added for staining for 15 min, centrifugation was performed, the supernatant was discarded, and washing was performed for 3 times again with PBS. A glass slide was loaded by applying the cell precipitate thereto and mounted with non-fluorescent buffering glycerol, a laser confocal scanning microscope was immediately used for observation and taking photographs at wavelengths of 488 nm and 560 nm. Meanwhile, cells without AnneixnV-FITC and PI added were used as a negative control.

[2] = test system: ascites hepatoma H22 induced solid tumor; assay: In vivo tumor growth inhibition in mice bearing H22; design: species or system white Kunming mice; conditions: Table 4, intraperitoneal, 10 d
Text: 1. Tumor strain and animal for experiments: H22 liver cancer cell strain was provided by Teaching and Research Office, School of Basic Medical Sciences, Lanzhou University/Key Lab of Preclinical Study for New Drugs of Gansu Province, and was passage and preserved by periodically intraperitoneal inoculation. White Kunming mice (18.0-22.0 g) were provided by Lanzhou Veterinary Institute, Chinese Academy of Agriculture.
2. Establishment of tumor models and method of grouping: a third passage of mice which were well grown 7 d after intraperitoneal inoculation of H22 tumor cells were sacrificed by cervical dislocation, and placed and soaked in 75% alcohol for 10 min. After 3 mL of sterile physiological saline was intraperitoneally injected, milky tumor cell ascites was withdrawn from the abdominal cavity, and formulated into a tumor cell suspension with sterile physiological saline, with a cell number of 1.5×10^7 mL^−1. 80 white Kunming mice were taken, and 0.2 mL of the tumor cell suspension was subcutaneously inoculated to the left axilla of each mouse. 24 h after the inoculation of tumor cells, the mice were divided into 8 groups according to body weights, 10 mice for each group. […] All of the administration manners were intraperitoneal administration.
3. Result of experiments: On the second day of modeling, continuous administration was performed for 10 d. Administration was stopped on the 11th d, and mice were sacrificed by cervical dislocation on the next day.
(§1) Test method: For the test method, see Example 24. Results can be seen in FIG. 15, FIG. 16, and Table 5.
Method: Modeling was performed by using the method of establishing H22 white mice tumor-bearing model of Example 24. The in vivo tumor growth inhibition activity of COM33 on H22 model mice was measured in an intraperitoneal injection administration manner.

[3] = In vivo absorption in mice, intragastric versus intraperitoneal administration; design: species or system white Kunming mice; conditions: inferred from no statistical difference between administration manners
Text: The aim of this experiment was to investigate in vivo tumor growth inhibition effect of FICD on white Kunming mice bearing ascites hepatoma H22 induced solid tumor, discuss in vivo absorption of FICD in mice, and investigate the druggability and the selection of administration manners of FICD, among different administration manners (intragastric administration and intraperitoneal injection administration). The specific protocol of investigation was as follows:
as §1

COc1cc(NC(=O)Nc2ccc(Cl)c(C(F)(F)F)c2)c2c(c1O)-c1c(OC)c(OC)cc3c1C(C2)N(C)CC3 (stereo not drawn) [Compound 1]
IC50 [1]: 14.2 ± 0.66 µg/mL (≈ 24.6 µM) | apoptosis and cell morphology, Anneixn V-FITC and PI double-staining (HepG2 cells): apoptoses occurred during various phases | Tumor inhibition rate (%) ([2]; high FICD dosage 150 mg/Kg): 50.8% | Tumor inhibition rate (%) ([2]; low FICD dosage 50 mg/Kg): 39.1% | Tumor inhibition rate (%) ([2]; middle FICD dosage 100 mg/Kg): 45.6% | in vivo absorption after oral administration [3]: well absorbed

— US10519132B2, “Isocorydine derivatives, preparation method and use thereof” (Lanzhou Institute of Chemical Physics, Chinese Academy of …, priority 2017, dated 2019)
